Experimental findings from ChEMBL document CHEMBL1201862, “PubChem BioAssay data set” (2004) are described below.

The target in assay [1] is Cell division cycle 7-related protein kinase (Homo sapiens, UniProt O00311). Type of assay: functional.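 Also: value obtained from a kinome-wide kinase panel.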
Assay [2] has as its target Homeodomain-interacting protein kinase 2 (Homo sapiens, UniProt Q9H2X6). Type of assay: functional.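 Also: measured within a kinome-wide kinase profiling panel, HIPK2 being one panel member.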
Assay [3] addresses Serine/threonine-protein kinase pim-1 (Homo sapiens, UniProt P11309). The class given is functional.
The target of assay [4] is T1, Glycogen synthase kinase-3 beta (Homo sapiens, UniProt P49841). The class given is functional.
T1 sequence (P49841 whole entry): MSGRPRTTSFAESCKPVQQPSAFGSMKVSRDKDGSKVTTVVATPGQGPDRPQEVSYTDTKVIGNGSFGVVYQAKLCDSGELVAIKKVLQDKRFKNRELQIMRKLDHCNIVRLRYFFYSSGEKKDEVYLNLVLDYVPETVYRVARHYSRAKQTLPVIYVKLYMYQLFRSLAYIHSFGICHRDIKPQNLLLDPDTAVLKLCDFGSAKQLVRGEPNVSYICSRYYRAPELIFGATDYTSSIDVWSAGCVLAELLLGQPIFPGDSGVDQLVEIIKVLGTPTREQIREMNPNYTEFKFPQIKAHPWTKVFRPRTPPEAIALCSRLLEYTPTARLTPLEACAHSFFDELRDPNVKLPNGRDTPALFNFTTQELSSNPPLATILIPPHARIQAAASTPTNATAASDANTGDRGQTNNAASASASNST
Assay [5] addresses Dual specificity protein kinase CLK4 (Homo sapiens, UniProt Q9HAZ1). The class given is functional.
Assay [6] has as its target Mitogen-activated protein kinase kinase kinase kinase 4 (Homo sapiens, UniProt O95819). The class given is functional.
Assay [7] concerns the target cAMP-dependent protein kinase catalytic subunit alpha (Homo sapiens, UniProt P17612). The class given is functional.
Assay [8] addresses Interleukin-1 receptor-associated kinase 4 (Homo sapiens, UniProt Q9NWZ3). Type of assay: functional.
Assay [9] can be described thus: Vero cell cytotoxicity, dose response, cytotoxicity control for M. tuberculosis growth inhibitor project, Vero cells, purified and synthesized compounds, set 4 (AID 504854). Type of assay: functional. The following applies: Mycobacterium tuberculosis.
Assay [10] concerns the target T2, High affinity choline transporter 1 (Homo sapiens, UniProt Q9GZV3).
T2 sequence (Q9GZV3 whole entry): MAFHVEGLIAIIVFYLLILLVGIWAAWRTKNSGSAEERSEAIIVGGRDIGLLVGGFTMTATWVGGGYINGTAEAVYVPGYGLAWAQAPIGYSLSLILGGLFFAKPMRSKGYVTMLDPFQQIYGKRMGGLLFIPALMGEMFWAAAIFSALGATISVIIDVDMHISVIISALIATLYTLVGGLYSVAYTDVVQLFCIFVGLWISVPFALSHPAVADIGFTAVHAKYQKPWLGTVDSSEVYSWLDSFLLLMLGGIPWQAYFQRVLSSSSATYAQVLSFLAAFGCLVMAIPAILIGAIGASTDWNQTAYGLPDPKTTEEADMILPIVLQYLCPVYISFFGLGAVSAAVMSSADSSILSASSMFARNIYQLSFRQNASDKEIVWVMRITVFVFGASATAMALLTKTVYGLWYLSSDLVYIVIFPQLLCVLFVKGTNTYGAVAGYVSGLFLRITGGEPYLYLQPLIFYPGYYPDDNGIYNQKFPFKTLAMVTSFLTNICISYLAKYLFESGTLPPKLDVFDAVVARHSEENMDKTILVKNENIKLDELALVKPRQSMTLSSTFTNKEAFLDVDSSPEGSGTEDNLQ
As to the kind of experiment: CHT activators, dose response, cell-based, 10-point CRC, membrane potential dye (AID 602376). The class given is functional.

For assay [11], the target named is G-protein coupled receptor 55 (Homo sapiens, UniProt Q9Y2T6). The assay is described as follows: GPR55 agonists via beta-arrestin recruitment, primary screen, imaging, U2OS cells, beta-arrestin-GFP redistribution (AID 1961). Type of assay: functional.
Assay [12] concerns the target ALK tyrosine kinase receptor (Homo sapiens, UniProt Q9UM73). The class given is functional.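 Also: ALK tested as one member of a kinase panel screen.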
In assay [13] the target is Cyclin-dependent kinase 19 (Homo sapiens, UniProt Q9BWU1). As to the kind of experiment: Navigating the Kinome. Panel member name: CDC2L6. Type of assay: functional.
Assay [14] has as its target T1, Glycogen synthase kinase-3 beta. As to the kind of experiment: Inhibition of Human GSK-3 beta Activity Measured in Biochemical System Using Microfluidics - 2063-05_Inhibitor_Dose_DryPowder_Activity_Set2. [Related pubchem assays (depositor defined):AID2709].
In assay [15] the target is Cyclin-dependent kinase 5/CDK5 activator 1 (Homo sapiens, UniProt Q00535). As to the kind of experiment: CDK5-p25 kinase inhibitors, specificity check, dose response, selectivity assay for GSK-3 alpha inhibitor project, biochemical, microfluidic mobility shift, dry powder (AID 588430).
The target in assay [16] is X-box-binding protein 1 (Homo sapiens, UniProt P17861). Type of assay: functional, Cricetulus griseus.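 Also: confirmatory dose-response counter-screen serving a CHOP assay.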
The target in assay [17] is Glycogen synthase kinase-3 alpha (Homo sapiens, UniProt P49840). As to the kind of experiment: Inhibition of Human GSK-3 alpha Activity Measured in Biochemical System Using Microfluidics - 2063-06_Inhibitor_Dose_DryPowder_Activity_Set2. [Related pubchem assays (depositor defined):AID2709].
The nature of assay [18]: HepG2 cell cytotoxicity, cytotoxicity control, set 6 (AID 602432). Type of assay: functional. The following applies: Mycobacterium tuberculosis.
Assay [19] can be described thus: THP-1 cell cytotoxicity, cytotoxicity control, set 6 (AID 602433). The class given is functional. Particulars: Mycobacterium tuberculosis.
Assay [20] can be described thus: Vero cell cytotoxicity, cytotoxicity control for M. tuberculosis inhibitor project, purified and synthesized samples, set 8 (AID 602431). Particulars: Mycobacterium tuberculosis. Type of assay: functional.
Assay [21] concerns Erythrocyte. The assay is described as follows: FACS-based assay to assess parasite growth inhibition 96 hr Measured in Cell-Based System Using Flow Cytometry - 2126-05_Inhibitor_Dose_DryPowder_Activity. [Related pubchem assays (depositor defined):AID488774]. The class given is functional. The following applies: Homo sapiens. (In general: A flow cytometer gives signals particle by particle.)

Assay [22] in a line: FACS-based assay to assess parasite growth inhibition 48 hr Measured in Cell-Based System Using Flow Cytometry - 2126-03_Inhibitor_Dose_DryPowder_Activity. [Related pubchem assays (depositor defined):AID488774]. Type of assay: functional. Particulars: Homo sapiens.
Assay [23] can be described thus: A cell-based HTS for delayed death inhibitors of the malarial parasite plastid Measured in Microorganism System Using Plate Reader - 2126-02_Inhibitor_Dose_DryPowder_Activity. The class given is functional, organism-based.
Assay [24] in a line: A cell-based HTS for delayed death inhibitors of the malarial parasite plastid Measured in Microorganism System Using Plate Reader - 2126-01_Inhibitor_Dose_DryPowder_Activity. Type of assay: functional, organism-based.
Assay [25] has as its target Multidrug resistance protein CDR1 (Candida albicans, UniProt P43071). The assay is described as follows: CaCDR1 efflux pump inhibitors in yeast, dose response, S. cerevisiae AD1-8u, singleplex, Cherry Pick1 hits (AID 588606). The class given is functional.
Assay [26] has as its target Protein disulfide-isomerase (Homo sapiens, UniProt P07237). The assay is described as follows: PDI inhibitors, insulin aggregation turbidity, dose response, biochemical, absorbance, cherry-picked samples (AID 602350). The class given is functional.

Activity calls are given as the source filed them.

Sequence of Mitogen-activated protein kinase kinase kinase kinase 4 (O95819 whole entry): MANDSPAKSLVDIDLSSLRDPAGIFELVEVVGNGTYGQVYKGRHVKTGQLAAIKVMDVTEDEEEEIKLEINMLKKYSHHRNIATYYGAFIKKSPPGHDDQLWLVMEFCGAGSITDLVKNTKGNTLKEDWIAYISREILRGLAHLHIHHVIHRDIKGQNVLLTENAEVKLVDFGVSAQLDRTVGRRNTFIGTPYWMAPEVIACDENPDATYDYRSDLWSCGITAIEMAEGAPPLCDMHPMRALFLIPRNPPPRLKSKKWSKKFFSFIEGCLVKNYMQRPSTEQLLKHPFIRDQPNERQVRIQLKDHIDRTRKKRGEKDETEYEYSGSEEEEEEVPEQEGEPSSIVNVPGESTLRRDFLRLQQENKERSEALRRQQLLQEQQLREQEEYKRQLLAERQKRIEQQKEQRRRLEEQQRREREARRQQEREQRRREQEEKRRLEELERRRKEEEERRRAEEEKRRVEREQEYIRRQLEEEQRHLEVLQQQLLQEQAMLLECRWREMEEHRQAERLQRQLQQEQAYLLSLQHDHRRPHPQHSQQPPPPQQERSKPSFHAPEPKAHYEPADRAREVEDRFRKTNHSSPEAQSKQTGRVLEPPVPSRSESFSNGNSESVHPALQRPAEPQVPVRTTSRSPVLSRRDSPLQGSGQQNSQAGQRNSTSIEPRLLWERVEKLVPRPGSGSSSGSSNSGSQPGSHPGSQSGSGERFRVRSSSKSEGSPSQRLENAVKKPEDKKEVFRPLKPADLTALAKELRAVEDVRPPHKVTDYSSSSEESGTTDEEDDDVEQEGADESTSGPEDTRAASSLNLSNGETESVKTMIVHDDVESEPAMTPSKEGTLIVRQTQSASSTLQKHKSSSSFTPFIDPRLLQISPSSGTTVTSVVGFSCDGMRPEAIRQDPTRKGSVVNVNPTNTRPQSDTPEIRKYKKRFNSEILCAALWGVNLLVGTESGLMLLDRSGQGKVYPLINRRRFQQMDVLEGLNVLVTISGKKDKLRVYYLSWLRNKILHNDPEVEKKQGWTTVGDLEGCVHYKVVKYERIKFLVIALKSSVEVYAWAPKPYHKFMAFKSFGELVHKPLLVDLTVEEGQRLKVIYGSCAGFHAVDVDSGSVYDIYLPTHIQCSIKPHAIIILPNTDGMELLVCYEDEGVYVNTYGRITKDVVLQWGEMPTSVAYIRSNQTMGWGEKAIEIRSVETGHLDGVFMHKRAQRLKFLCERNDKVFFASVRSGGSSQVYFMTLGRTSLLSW
Sequence of Protein disulfide-isomerase (P07237 whole entry): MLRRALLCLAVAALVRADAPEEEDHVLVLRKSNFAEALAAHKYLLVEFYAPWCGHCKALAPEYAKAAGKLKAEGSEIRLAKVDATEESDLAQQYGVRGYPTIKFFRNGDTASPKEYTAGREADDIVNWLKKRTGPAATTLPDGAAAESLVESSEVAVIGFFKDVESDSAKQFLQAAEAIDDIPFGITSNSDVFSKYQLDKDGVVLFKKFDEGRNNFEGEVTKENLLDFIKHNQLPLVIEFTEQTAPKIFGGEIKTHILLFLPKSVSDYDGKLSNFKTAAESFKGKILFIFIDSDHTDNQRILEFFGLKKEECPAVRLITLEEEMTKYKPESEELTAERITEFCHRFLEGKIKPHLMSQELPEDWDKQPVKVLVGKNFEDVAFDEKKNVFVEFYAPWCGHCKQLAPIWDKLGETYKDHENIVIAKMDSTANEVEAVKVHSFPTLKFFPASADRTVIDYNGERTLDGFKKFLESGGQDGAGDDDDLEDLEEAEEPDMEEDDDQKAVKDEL
Sequence of Cell division cycle 7-related protein kinase (O00311 whole entry): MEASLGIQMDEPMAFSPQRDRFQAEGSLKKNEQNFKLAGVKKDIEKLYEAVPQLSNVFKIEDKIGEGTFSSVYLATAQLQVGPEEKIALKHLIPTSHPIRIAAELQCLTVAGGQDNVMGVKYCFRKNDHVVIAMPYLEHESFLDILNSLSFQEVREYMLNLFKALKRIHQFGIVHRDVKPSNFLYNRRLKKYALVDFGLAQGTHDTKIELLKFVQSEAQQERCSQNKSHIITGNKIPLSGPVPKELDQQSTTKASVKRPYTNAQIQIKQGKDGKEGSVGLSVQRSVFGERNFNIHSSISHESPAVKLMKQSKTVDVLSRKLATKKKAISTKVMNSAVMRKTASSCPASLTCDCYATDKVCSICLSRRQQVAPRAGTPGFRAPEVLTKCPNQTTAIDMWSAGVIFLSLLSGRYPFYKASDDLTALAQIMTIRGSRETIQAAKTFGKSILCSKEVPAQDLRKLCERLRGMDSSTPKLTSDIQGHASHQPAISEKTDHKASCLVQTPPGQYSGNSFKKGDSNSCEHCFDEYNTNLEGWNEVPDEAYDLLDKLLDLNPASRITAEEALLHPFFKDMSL
Sequence of Multidrug resistance protein CDR1 (P43071 whole entry, looked up): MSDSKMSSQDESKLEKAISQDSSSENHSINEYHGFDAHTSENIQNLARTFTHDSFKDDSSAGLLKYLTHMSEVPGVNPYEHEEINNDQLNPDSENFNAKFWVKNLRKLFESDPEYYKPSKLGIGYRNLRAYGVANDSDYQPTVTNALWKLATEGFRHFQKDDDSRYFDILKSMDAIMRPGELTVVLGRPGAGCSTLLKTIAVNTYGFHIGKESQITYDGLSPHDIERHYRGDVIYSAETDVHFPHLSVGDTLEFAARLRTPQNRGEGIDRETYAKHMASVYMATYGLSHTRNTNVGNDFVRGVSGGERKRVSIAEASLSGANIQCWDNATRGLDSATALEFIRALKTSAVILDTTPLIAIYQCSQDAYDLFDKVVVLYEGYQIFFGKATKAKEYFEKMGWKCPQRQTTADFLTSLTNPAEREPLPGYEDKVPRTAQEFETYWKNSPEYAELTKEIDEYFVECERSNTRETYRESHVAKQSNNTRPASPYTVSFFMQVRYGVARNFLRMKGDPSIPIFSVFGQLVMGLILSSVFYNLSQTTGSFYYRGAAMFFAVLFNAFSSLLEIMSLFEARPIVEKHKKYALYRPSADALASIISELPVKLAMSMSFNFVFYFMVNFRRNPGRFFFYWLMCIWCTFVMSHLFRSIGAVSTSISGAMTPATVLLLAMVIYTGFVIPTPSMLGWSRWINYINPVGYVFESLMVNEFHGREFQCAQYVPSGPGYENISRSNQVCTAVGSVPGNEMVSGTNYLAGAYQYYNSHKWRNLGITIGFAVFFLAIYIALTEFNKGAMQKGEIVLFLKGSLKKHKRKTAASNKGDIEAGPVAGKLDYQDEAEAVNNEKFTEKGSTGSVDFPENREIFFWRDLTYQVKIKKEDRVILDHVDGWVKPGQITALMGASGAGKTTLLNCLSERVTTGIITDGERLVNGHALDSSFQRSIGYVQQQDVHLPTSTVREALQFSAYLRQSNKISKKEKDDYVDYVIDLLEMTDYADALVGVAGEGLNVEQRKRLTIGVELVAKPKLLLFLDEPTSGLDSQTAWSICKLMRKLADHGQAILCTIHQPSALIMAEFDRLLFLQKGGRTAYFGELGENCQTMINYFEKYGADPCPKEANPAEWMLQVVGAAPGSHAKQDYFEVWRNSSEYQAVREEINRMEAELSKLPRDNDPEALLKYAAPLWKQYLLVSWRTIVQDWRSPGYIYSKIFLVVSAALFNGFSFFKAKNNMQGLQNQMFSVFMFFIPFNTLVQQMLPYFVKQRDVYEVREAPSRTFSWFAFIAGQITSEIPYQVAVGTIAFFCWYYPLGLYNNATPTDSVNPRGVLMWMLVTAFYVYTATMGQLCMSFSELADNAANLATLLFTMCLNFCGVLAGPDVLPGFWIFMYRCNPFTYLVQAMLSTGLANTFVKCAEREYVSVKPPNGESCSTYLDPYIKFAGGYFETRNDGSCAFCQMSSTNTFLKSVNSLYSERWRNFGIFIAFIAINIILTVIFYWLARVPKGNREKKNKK
Sequence of Interleukin-1 receptor-associated kinase 4 (Q9NWZ3 whole entry): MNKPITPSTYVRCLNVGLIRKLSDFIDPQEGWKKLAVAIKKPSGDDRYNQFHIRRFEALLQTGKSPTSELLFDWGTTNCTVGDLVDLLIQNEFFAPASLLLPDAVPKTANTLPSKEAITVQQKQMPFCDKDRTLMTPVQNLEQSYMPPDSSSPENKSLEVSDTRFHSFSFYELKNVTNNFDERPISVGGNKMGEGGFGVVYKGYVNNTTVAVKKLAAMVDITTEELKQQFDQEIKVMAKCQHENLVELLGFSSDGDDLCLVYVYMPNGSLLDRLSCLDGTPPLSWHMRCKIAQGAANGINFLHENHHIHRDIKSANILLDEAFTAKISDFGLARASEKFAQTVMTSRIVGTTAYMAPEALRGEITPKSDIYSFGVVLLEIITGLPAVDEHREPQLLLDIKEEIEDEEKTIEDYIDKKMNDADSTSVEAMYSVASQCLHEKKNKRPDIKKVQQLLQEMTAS
Sequence of Serine/threonine-protein kinase pim-1 (P11309 whole entry): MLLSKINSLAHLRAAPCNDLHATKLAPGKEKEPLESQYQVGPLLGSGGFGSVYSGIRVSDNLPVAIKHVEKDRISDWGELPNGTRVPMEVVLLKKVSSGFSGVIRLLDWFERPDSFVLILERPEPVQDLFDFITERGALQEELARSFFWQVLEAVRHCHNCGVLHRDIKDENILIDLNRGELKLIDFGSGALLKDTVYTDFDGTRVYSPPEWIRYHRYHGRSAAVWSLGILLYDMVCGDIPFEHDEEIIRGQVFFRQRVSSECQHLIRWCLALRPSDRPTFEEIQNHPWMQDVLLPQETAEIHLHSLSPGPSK

Usually Ki stands for a dissociation constant, usually derived from enzyme kinetics or from competition with a known ligand. As for `Cc1cccc(CNc2cc(-c3c[nH]c4ncccc34)cc(Cl)n2)c1C`, the Ki in [1] was 1.26 nM (active); in assay [2], 398 nM (active); in [3], 501 nM (active); in assay [4], 25.1 nM (active); in assay [5], 5.01 nM (active); in assay [6], 3.98 nM (active). For the same compound, the Ki in assay [7] is 158 nM (active); in assay [8], > 10000 nM (inactive).

By CC50 is commonly meant the concentration giving 50% cytotoxicity. With `CC(C)CCNC(=O)CSc1nc2c(c(=O)[nH]1)CCC2`, the CC50 in [9] was > 100000 nM (active).

For orientation: EC50 means the concentration at which the effect is half-maximal. Turning to `CSc1ccc(-c2sc(Nc3ccccc3)n[n+]2-c2ccccc2)cc1`, the EC50 was 7330 nM (active) in [10] and > 32000 nM (inactive) in assay [11].

`O=C(O)c1c(Cl)ccc2cc(-n3cccc3)cnc12`: the values for the Ki in assay [12] and in [13] were 3980 nM (active) and > 100000 nM (inactive), respectively.

Broadly, the AC50 is the concentration giving half of the maximal activity seen. `O=C(Nc1cccc(Cl)c1)Nc1ccnc(-c2cccnc2)n1`: the AC50 was 716 nM (active) in [14], 20800 nM (active) in assay [15] and 3970 nM (active) in assay [17]. In addition, the “Absolute IC50 (XBP1)” value in assay [16] came out at 10000 nM.

With `COc1ccc(N2CCN(C(=O)c3ccc(CNc4c(N5CCCC(C)C5)c(=O)c4=O)cc3)CC2)cc1` (stereo unspecified), the CC50 in assay [18] is > 50000 nM (inconclusive); in assay [19], > 98400 nM (active); in assay [20], > 100000 nM (inconclusive).

In the case of `COc1ccc(COC[C@H](C)N2C[C@@H](C)[C@H](CN(C)S(=O)(=O)c3ccc(F)cc3)OCCCC[C@H](C)Oc3ccc(NC(=O)Nc4ccccc4)cc3C2=O)cc1`, the AC50 in [21] was 1 nM (active); in assay [22], 0.8 nM (active); in assay [23] it was 0.18 nM (active); in [24] it was 0.294 nM (active).

For `CC(C)=C1C2CCC1C1C(=O)N(c3nc(-c4ccc(C(C)C)cc4)c(C)s3)C(=O)C21` (stereo unspecified), the EC50 in [25] was 3790 nM (active).

Take `CCN(CC)CCNC(=O)C(C(=O)c1ccccc1)n1ccccc1=O` (stereo unspecified): the AC50 in assay [26] is 2160 nM (active).
